Reference: patent US20210353769A1, “SURFACE MODIFIED EXTRACELLULAR VESICLES” (City University of Hong Kong, priority 2018, published 2021)

Test system: H358 cells
Assay: Uptake of Calcein AM-labelled RBCEVs by H358 cells (FACS)
Type: cell-based, human
Settings: 5-20 μg/ml Filipin
Procedure: To test the uptake of RBCEVs by the cells, we labelled RBCEVs with Calcein AM, a fluorescent dye, and sortagged the labelled RBCEVs with biotinylated EGFR-targeting peptide as described above. The labelled and sortagged RBCEVs were washed extensively with SEC and 2 rounds of centrifugation. We incubated H358 cells with a suboptimal dose of the labelled RBCEVs and analysed Calcein AM fluorescence in the cells after 2 hours of incubation (FIG. 8C). The fluorescent background was determined based on the supernatant of the last wash (flowthrough) of the labelled RBCEVs.
In a shorter uptake assay, H358, HCC827, MOLM13 and THP1 cells were incubated with Calcein AM-labelled RBCEVs for 1 to 2 hours at 37° C. To identify the route of EV uptake, we added 25-100 μM EIPA, 5-20 μg/ml Filipin, 0.25-1 μM Wortmannin.
Flow cytometry of latex beads or cells in FACS buffer was performed using a CytoFLEX-S cytometer (Beckman Coulter) and analyzed using Flowjo V10 (Flowjo, USA). The beads or cells were initially gated based on FSC-A and SSC-A to exclude the debris and dead cells (low FSC-A). The cells were further gated based on FSC-width vs. FSC-height, to exclude doublets and aggregates.

CCCCC[C@@H](O)[C@H]1C(=O)O[C@H](C)[C@@H](O)/C=C/C=C/C=C/C=C/C=C(\C)[C@@H](O)C[C@H](O)C[C@H](O)C[C@H](O)C[C@H](O)C[C@H](O)C[C@@H]1O [Filipin]
effect of endocytosis inhibitor on uptake of ET-ligated RBCEVs: reduce the uptake
